Reference: PMC5439695 (PLoS ONE, 2017)
Like-named read-outs stand apart in the source and are kept apart here.

Key:
HepG2 cells [1] = assay: CellTox Green Cytotoxicity Assay (flor) in HepG2, HepG2[flor]; assay type: cell-based, human; conditions: HepG2 flor; for EC50: Homo sapiens, given as negative log-scale values;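 on hepg2 flor emax 0: percent activity versus DMSO-only wells with baseline rescaled to 0%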;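 on hepg2 flor emax 40: percent activity versus DMSO-only wells with baseline rescaled to 0%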
HEK293 cells [2] = conditions: HEK293 glo
HEK293 cells [3] = conditions: HEK293 flor
HepG2 cells [4] = conditions: HepG2 glo
[5] = test system: HEK293 and HepG2 cell lines
HEK293 cells [6] = assay: cells; conditions: Homo sapiens
HEK293 cells [7] = assay: cells; conditions: Homo sapiens; remark: listed apart in the source
HepG2 cells [8] = assay: cells; conditions: Homo sapiens
estrogen receptor (ER) = conditions: cited from earlier work; for AUC score in Judson 2015: ER antagonist, ToxCast chemicals only, ref Judson 2015

CC(C)=CCC/C(C)=C/CO [Geraniol]
> 38.3 µM: EC50 (HepG2 cells [1]; time point 0, read-out: hepg2_flor_ec50_0) | EC50 (HepG2 cells [1]; time point 8, read-out: hepg2_flor_ec50_8) | EC50 (HepG2 cells [1]; time point 16, read-out: hepg2_flor_ec50_16) | EC50 (HepG2 cells [1]; time point 24, read-out: hepg2_flor_ec50_24) | EC50 (HepG2 cells [1]; time point 32, read-out: hepg2_flor_ec50_32) | EC50 (HepG2 cells [1]; time point 40, read-out: hepg2_flor_ec50_40) | EC50 (HEK293 cells [6]; HEK293, read-out: hek293_glo_ec50_0) | EC50 (HEK293 cells [6]; HEK293, read-out: hek293_glo_ec50_8) | EC50 (HEK293 cells [6]; HEK293, read-out: hek293_glo_ec50_16) | EC50 (HEK293 cells [6]; HEK293, read-out: hek293_glo_ec50_24) | EC50 (HEK293 cells [6]; HEK293, read-out: hek293_glo_ec50_32) | EC50 (HEK293 cells [6]; HEK293, read-out: hek293_glo_ec50_40) | EC50 (HEK293 cells [7]; HEK293, read-out: hek293_flor_ec50_0) | EC50 (HEK293 cells [7]; HEK293, read-out: hek293_flor_ec50_8) | EC50 (HEK293 cells [7]; HEK293, read-out: hek293_flor_ec50_16) | EC50 (HEK293 cells [7]; HEK293, read-out: hek293_flor_ec50_24) | EC50 (HEK293 cells [7]; HEK293, read-out: hek293_flor_ec50_32) | EC50 (HEK293 cells [7]; HEK293, read-out: hek293_flor_ec50_40) | EC50 (HepG2 cells [8]; HepG2, read-out: hepg2_glo_ec50_0) | EC50 (HepG2 cells [8]; HepG2, read-out: hepg2_glo_ec50_8) | EC50 (HepG2 cells [8]; HepG2, read-out: hepg2_glo_ec50_16) | EC50 (HepG2 cells [8]; HepG2, read-out: hepg2_glo_ec50_24) | EC50 (HepG2 cells [8]; HepG2, read-out: hepg2_glo_ec50_32) | EC50 (HepG2 cells [8]; HepG2, read-out: hepg2_glo_ec50_40)
48: hepg2_flor_time (HepG2 cells [1]) | hek293_glo_time (HEK293 cells [2]) | hek293_flor_time (HEK293 cells [3]) | hepg2_glo_time (HepG2 cells [4])
0: hepg2_flor_auc (HepG2 cells [1]) | hepg2_flor_emax_0 (HepG2 cells [1]; time point 0) | hepg2_flor_wauc_0 (HepG2 cells [1]; time point 0) | hepg2_flor_emax_8 (HepG2 cells [1]; time point 8) | hepg2_flor_wauc_8 (HepG2 cells [1]; time point 8) | hepg2_flor_emax_16 (HepG2 cells [1]; time point 16) | hepg2_flor_wauc_16 (HepG2 cells [1]; time point 16) | hepg2_flor_emax_24 (HepG2 cells [1]; time point 24) | hepg2_flor_wauc_24 (HepG2 cells [1]; time point 24) | hepg2_flor_emax_32 (HepG2 cells [1]; time point 32) | hepg2_flor_wauc_32 (HepG2 cells [1]; time point 32) | hepg2_flor_emax_40 (HepG2 cells [1]; time point 40) | hepg2_flor_wauc_40 (HepG2 cells [1]; time point 40) | hek293_glo_auc (HEK293 cells [2]) | hek293_glo_emax_0 (HEK293 cells [2]; time point 0) | hek293_glo_wauc_0 (HEK293 cells [2]; time point 0) | hek293_glo_emax_8 (HEK293 cells [2]; time point 8) | hek293_glo_wauc_8 (HEK293 cells [2]; time point 8) | hek293_glo_emax_16 (HEK293 cells [2]; time point 16) | hek293_glo_wauc_16 (HEK293 cells [2]; time point 16) | hek293_glo_emax_24 (HEK293 cells [2]; time point 24) | hek293_glo_wauc_24 (HEK293 cells [2]; time point 24) | hek293_glo_emax_32 (HEK293 cells [2]; time point 32) | hek293_glo_wauc_32 (HEK293 cells [2]; time point 32) | hek293_glo_emax_40 (HEK293 cells [2]; time point 40) | hek293_glo_wauc_40 (HEK293 cells [2]; time point 40) | hek293_flor_auc (HEK293 cells [3]) | hek293_flor_emax_0 (HEK293 cells [3]; time point 0) | hek293_flor_wauc_0 (HEK293 cells [3]; time point 0) | hek293_flor_emax_8 (HEK293 cells [3]; time point 8) | hek293_flor_wauc_8 (HEK293 cells [3]; time point 8) | hek293_flor_emax_16 (HEK293 cells [3]; time point 16) | hek293_flor_wauc_16 (HEK293 cells [3]; time point 16) | hek293_flor_emax_24 (HEK293 cells [3]; time point 24) | hek293_flor_wauc_24 (HEK293 cells [3]; time point 24) | hek293_flor_emax_32 (HEK293 cells [3]; time point 32) | hek293_flor_wauc_32 (HEK293 cells [3]; time point 32) | hek293_flor_emax_40 (HEK293 cells [3]; time point 40) | hek293_flor_wauc_40 (HEK293 cells [3]; time point 40) | hepg2_glo_auc (HepG2 cells [4]) | hepg2_glo_emax_0 (HepG2 cells [4]; time point 0) | hepg2_glo_wauc_0 (HepG2 cells [4]; time point 0) | hepg2_glo_emax_8 (HepG2 cells [4]; time point 8) | hepg2_glo_wauc_8 (HepG2 cells [4]; time point 8) | hepg2_glo_emax_16 (HepG2 cells [4]; time point 16) | hepg2_glo_wauc_16 (HepG2 cells [4]; time point 16) | hepg2_glo_emax_24 (HepG2 cells [4]; time point 24) | hepg2_glo_wauc_24 (HepG2 cells [4]; time point 24) | hepg2_glo_emax_32 (HepG2 cells [4]; time point 32) | hepg2_glo_wauc_32 (HepG2 cells [4]; time point 32) | hepg2_glo_emax_40 (HepG2 cells [4]; time point 40) | hepg2_glo_wauc_40 (HepG2 cells [4]; time point 40) | information ([5]; any activity in any time point/assay)
-4.417: hepg2_flor_pod_0 (HepG2 cells [1]; time point 0) | hepg2_flor_pod_8 (HepG2 cells [1]; time point 8) | hepg2_flor_pod_16 (HepG2 cells [1]; time point 16) | hepg2_flor_pod_24 (HepG2 cells [1]; time point 24) | hepg2_flor_pod_32 (HepG2 cells [1]; time point 32) | hepg2_flor_pod_40 (HepG2 cells [1]; time point 40) | hek293_glo_pod_0 (HEK293 cells [2]; time point 0) | hek293_glo_pod_8 (HEK293 cells [2]; time point 8) | hek293_glo_pod_16 (HEK293 cells [2]; time point 16) | hek293_glo_pod_24 (HEK293 cells [2]; time point 24) | hek293_glo_pod_32 (HEK293 cells [2]; time point 32) | hek293_glo_pod_40 (HEK293 cells [2]; time point 40) | hek293_flor_pod_0 (HEK293 cells [3]; time point 0) | hek293_flor_pod_8 (HEK293 cells [3]; time point 8) | hek293_flor_pod_16 (HEK293 cells [3]; time point 16) | hek293_flor_pod_24 (HEK293 cells [3]; time point 24) | hek293_flor_pod_32 (HEK293 cells [3]; time point 32) | hek293_flor_pod_40 (HEK293 cells [3]; time point 40) | hepg2_glo_pod_0 (HepG2 cells [4]; time point 0) | hepg2_glo_pod_8 (HepG2 cells [4]; time point 8) | hepg2_glo_pod_16 (HepG2 cells [4]; time point 16) | hepg2_glo_pod_24 (HepG2 cells [4]; time point 24) | hepg2_glo_pod_32 (HepG2 cells [4]; time point 32) | hepg2_glo_pod_40 (HepG2 cells [4]; time point 40)
inactive: hepg2_flor_bin (HepG2 cells [1]; kinetics bin) | hek293_glo_bin (HEK293 cells [2]; kinetics bin) | hek293_flor_bin (HEK293 cells [3]; kinetics bin) | hepg2_glo_bin (HepG2 cells [4]; kinetics bin)

Dodecylphenol
0: AUC score in Judson 2015 (estrogen receptor (ER))
4.56 log10(M)*-1: Cyto(realtime)_median ([5]; POD potency, median over real-time cytotoxicity assays)
5.05 log10(M)*-1: Cyto(realtime)_max ([5]; POD potency, max over real-time cytotoxicity assays)

tetrabutyltin
5.64 log10(M)*-1: Cyto(realtime)_max [5]
0.0101: AUC score in Judson 2015 (estrogen receptor (ER))
higher than 0.01: ER antagonist AUC score (estrogen receptor (ER); pathway-level model using all Tox21/ToxCast ER assays of 1812 ToxCast chemicals)
5.16 log10(M)*-1: Cyto(realtime)_median [5]
